This experiment has as its target T1, glucocorticoid receptor recombinant human protein, ligand binding domain (LBD) (Homo sapiens, UniProt P04150).
T1 construct: purchased Thermo Fisher Scientific A15668
T1 sequence (P04150 524-758 limits assumed): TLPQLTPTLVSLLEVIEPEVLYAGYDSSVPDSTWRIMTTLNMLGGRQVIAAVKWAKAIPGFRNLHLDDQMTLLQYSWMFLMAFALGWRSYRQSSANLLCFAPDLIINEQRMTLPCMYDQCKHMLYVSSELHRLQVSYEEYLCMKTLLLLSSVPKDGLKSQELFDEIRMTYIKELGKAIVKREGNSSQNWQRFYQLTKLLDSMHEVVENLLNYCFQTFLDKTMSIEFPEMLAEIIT
The experiment is described as follows: nuclear receptor cofactor recruitment peptide array (70 coregulator peptides), ligand induced cofactor peptide interaction profiling. It counts as biochemical. How it is done: Interactions between the glucocorticoid receptor ligand binding domain and the selected drugs for repurposing and coregulator peptides were determined using the method as described by Zalachoras et al 2013^xxvii Each peptide array consisting of 70 coregulator peptides as described in table 1 were incubated with a reaction mixture of 1 nM purified glucocorticoid receptor recombinant human protein, ligand binding domain (LBD), (Thermo Fisher Scientific, cat #A15668), ALEXA488-conjugated anti-GST antibody and buffer F (PV4689, A-11131, and PV4547; Invitrogen). […] For ligand induced cofactor peptide interaction profiling the set of repurposing drugs were tested at a concentration of 0.05 mM compared to solvent (2% DMSO in water). Incubation was performed at 20° C. on the cofactor peptide array. Glucocorticoid receptor binding to each peptide on the array, reflected by fluorescent signal, was quantified by image analysis using R-based software (Precision Medicine Lab). The 70 coregulator peptides used represent a range of coregulator nuclear receptor-boxes known to interact with the glucocorticoid receptor and other nuclear receptors. The binding profiles were generated for glucocorticoid receptor-LBD treated with the repurposing drugs vs cortisol.
The R2 is calculated using the data for each of the 70 cofactor peptides using the same weight.
In this example a weight factor was applied on the log fold change data of example 1 to determine the similarities between the tested repositioning drugs versus cortisol using the coefficient of determination, R2, between the weighted log fold change data of the tested repurposing drug to the positive control, cortisol. […] In this example 14 cofactor peptides were used (table 3).

Experimental findings from patent US20240145031A1, “Methods and devices for drug repositioning and drug repurposing as nuclear receptor modulators” (Precision Medicine Lab, priority 2022, published 2024) are described below.

For the substance Dexamethasone [Drug 3], the “binding to coregulator peptide no 22 NCOA1_1421_1444 compared to the negative control (NC), DMSO” value is “increased binding”.
